Test results published in patent US9643933B2, “Compounds useful as antibiotic tolerance inhibitors” (priority 2013, dated 2017).
Read-outs that look alike come from different tables or passages of the source.

How the values were obtained:
HHQ = assay: Assay for HHQ Inhibition (6 Hour Incubation); assay type: cell-based, P. aeruginosa PA14 wild-type strain
Description: (§1) A concentration range with 7 test concentrations is chosen for each test compound. Typically concentration ranges for the PQS and HHQ assays are from 0.03 to 31.6 μM. Compounds are prepared in solvent, usually DMSO, at either 200 or 500 times the final test concentration.
(§2) P. aeruginosa PA14 wild-type strain is inoculated into 5 ml LB broth in a 15 ml sterile glass culture tube and incubated overnight at 37° C. under shaking (˜240 rpm). After overnight incubation, the bacterial culture is diluted in fresh LB broth to an OD600 nm=0.04, and 5 mL aliquots of the diluted bacterial culture are distributed into 15-mL glass tubes. 10 μL of test compound at 500 times the final test concentration or 25 μL of test compound at 200 times the final test concentration or solvent alone is added to each of the bacterial suspension tubes, and the tubes are incubated at 37° C. under shaking (300 rpm) for 6 hours. At the end of the incubation period, a 0.5 mL aliquot of bacterial suspension is transferred from each 15 mL glass tube, after shaking, to a 2 mL polypropylene vial. 0.5 mL of methanol-containing D4-PQS (deuterated-PQS), D4-HHQ (deuterated-HHQ) and 2% acetic acid are added to each 2 mL vial and each vial is vigorously shaken. The vials are then centrifuged for 5 minutes at 12,000 g, and 200 μL of supernatant from each vial is transferred to a glass vial (vials crimp 0.2 mL), and the sealed vials are kept at 4° C. until LC-MS/MS analysis is performed. HAQs quantification is carried out analyzing samples in discrete batches together with spiked standards and blank samples. Calibration curves are constructed from HAQs standards, and respective deuterated forms are used as Internal Standards (IS), to calculate the concentration of analytes in the sample and improve the precision of the assay. The back-calculated concentrations of the calibration standards from the calibration curve shall be within ±20% of the nominal values, the range of the analytical method is determined, and the lower and upper limit of quantification specified.
(§3) Liquid chromatography separations are performed using Agilent HP1100 system (Agilent Technologies) coupled with a CTC PAL Autosampler (CTC Analytics AG). Chromatographic retention is obtained using a monolithic column (Chromolith® RP-18, 50×4.6 mm). The solvent system consists of water containing 0.1% (v/v) formic acid (A) and acetonitrile containing 0.1% (v/v) formic acid (B). The gradient elution profile is chosen as follows: 0 min: 70% A (1500 μL/min), 0.3 min: 70% A (1500 μL/min), 1.3 min: 5% A (2500 μL/min), 1.6 min: 5% A (2500 μL/min).
(§4) The MS/MS analysis is performed with a API4000 series mass spectrometer (AB Sciex™) operating in Multiple Reaction Monitoring (MRM) mode and equipped with a TIS ion source. The specific ions monitored are PQS (m/z 260→m/z 175), D4-PQS (m/z 264→m/z 179), HHQ (m/z 244→m/z 159) and D4-HHQ (m/z 248→m/z 163). PQS and HHQ in presence of different test compound concentrations are expressed as percentage of inhibition of the basal level in control samples.

PQS = assay: Assay for PQS Inhibition (6 Hour Incubation); assay type: cell-based, P. aeruginosa PA14 wild-type strain
Description: as §1, §2, §3, §4

[1] = Pseudomonas aeruginosa, PA14, 6 h, read-out: HHQ (6 hr) IC50 (μM)
[2] = Pseudomonas aeruginosa, PA14, 6 h, read-out: PQS (6 hr) IC50 (μM)

“2-((5-chloro-1H-benzo[d]imidazol-2-yl)thio)-N-(4-(pyrimidin-5-yloxy)phenyl)acetamide [Compound 79]” was tested, and the IC50 (HHQ; P. aeruginosa PA14 culture, 6 hours incubation, HHQ by LC-MS/MS, read-out: HHQ (6 hr) IC50) was < 1 µM and the IC50 (PQS; P. aeruginosa PA14 culture, 6 hours incubation, PQS by LC-MS/MS, read-out: PQS (6 hr) IC50) was < 1 µM.
With `N#Cc1ccc(NC(=O)CSc2nc3cc(C(F)(F)F)ccc3[nH]2)cc1` [Compound 56] the IC50 (HHQ; [1]) was < 1 µM and the IC50 (PQS; [2]) was < 1 µM.
`N#Cc1ccc(NC(=O)CSc2nc3cc(F)ccc3[nH]2)cc1` [Compound 57] was tested, and the IC50 (HHQ; [1]) was 1 to 5 µM and the IC50 (PQS; [2]) was 1 to 5 µM.
Work on `O=C(CNc1nc2cc(Cl)ccc2s1)Nc1ccc(Oc2cccnc2)cc1` [Compound 71, 2-((5-chlorobenzo[d]thiazol-2-yl)amino)-N-(4-(pyridin-3-yloxy)phenyl)acetamide] yielded an IC50 (HHQ; [1]) of 1 to 5 µM and an IC50 (PQS; [2]) of 1 to 5 µM.
`O=C(CNc1nc2cc(Cl)ccc2o1)Nc1ccc(Oc2cccnc2)cc1` [Compound 74, 2-((5-chlorobenzo[d]oxazol-2-yl)amino)-N-(4-(pyridin-3-yloxy)phenyl)acetamide] was tested, and the IC50 (HHQ; [1]) was < 1 µM and the IC50 (PQS; [2]) was 1 to 5 µM.
In the case of `O=C(CSc1nc2cc(Cl)ccc2[nH]1)Nc1ccc(Oc2cccnc2)cc1` [Compound 77, 2-((5-chloro-1H-benzo[d]imidazol-2-yl)thio)-N-(4-(pyridin-3-yloxy)phenyl)acetamide], the IC50 (HHQ; [1]) is reported as < 1 µM and the IC50 (PQS; [2]) is reported as < 1 µM.
For `O=C(CSc1nc2cc(Cl)ccc2[nH]1)Nc1ccc(Oc2cccnc2Cl)cc1` [Compound 83, 2-((5-chloro-1H-benzo[d]imidazol-2-yl)thio)-N-(4-((2-chloropyridin-3-yl)oxy)phenyl)acetamide], the IC50 (HHQ; [1]) was < 1 µM and the IC50 (PQS; [2]) was < 1 µM.
`O=C(CSc1nc2cc(Cl)ccc2[nH]1)Nc1ccc(Oc2ccc(Cl)nc2)cc1` [Compound 84, 2-((5-chloro-1H-benzo[d]imidazol-2-yl)thio)-N-(4-((6-chloropyridin-3-yl)oxy)phenyl)acetamide] was tested, and the IC50 (HHQ; [1]) was < 1 µM and the IC50 (PQS; [2]) was < 1 µM.
`O=C(CCc1nc2cc(Cl)ccc2s1)Nc1ccc(Oc2cccnc2)cc1` [Compound 85, 3-(5-chlorobenzo[d]thiazol-2-yl)-N-(4-(pyridin-3-yloxy)phenyl)propanamide] showed an IC50 (HHQ; [1]) of 1 to 5 µM and an IC50 (PQS; [2]) of 1 to 5 µM.
`O=C(CCc1nc2ccc(Cl)cc2s1)Nc1ccc(Oc2cccnc2)cc1` [Compound 86, 3-(6-Chlorobenzo[d]thiazol-2-yl)-N-(4-(pyridin-3-yloxy)phenyl)propanamide] was tested, and the IC50 (HHQ; [1]) was > 10 µM and the IC50 (PQS; [2]) was > 10 µM.
In the case of `N#Cc1ccc(NC(=O)CSc2nc3ccc(C#N)cc3[nH]2)cc1` [Compound 93], the IC50 (HHQ; [1]) is reported as < 1 µM and the IC50 (PQS; [2]) is reported as 1 to 5 µM.
In the case of `N#Cc1ccc2nc(SCC(=O)Nc3ccc(Cl)cc3)[nH]c2c1` [Compound 94], the IC50 (HHQ; [1]) is reported as 1 to 5 µM and the IC50 (PQS; [2]) is reported as 1 to 5 µM.
In the case of `N#Cc1ccc(NC(=O)CSc2nc3cc(Br)ccc3[nH]2)cc1` [Compound 96], the IC50 (HHQ; [1]) is reported as < 1 µM and the IC50 (PQS; [2]) is reported as < 1 µM.
Compound `N#Cc1ccc(NC(=O)CSc2nc3cc(OC(F)F)ccc3[nH]2)cc1` [Compound 104] has an IC50 (HHQ; [1]) of 1 to 5 µM and an IC50 (PQS; [2]) of 1 to 5 µM.
In the case of `O=C(CSc1nc2cc(C(F)(F)F)ccc2[nH]1)Nc1ccc(Cl)cc1` [Compound 105], the IC50 (HHQ; [1]) is reported as < 1 µM and the IC50 (PQS; [2]) is reported as < 1 µM.
Compound `O=C(CSc1nc2cc(F)ccc2[nH]1)Nc1ccc(Cl)cc1` [Compound 110] has an IC50 (HHQ; [1]) of 1 to 5 µM and an IC50 (PQS; [2]) of 1 to 5 µM.
With `O=C(CSc1nc2ccc(-n3cccn3)cc2[nH]1)Nc1ccc(Cl)cc1` [Compound 116] the IC50 (HHQ; [1]) was > 10 µM and the IC50 (PQS; [2]) was > 10 µM.
For `N#Cc1ccc(NC(=O)CSc2nc3cc(Cl)ccc3[nH]2)cc1` [Compound 125], the IC50 (HHQ; [1]) was < 1 µM and the IC50 (PQS; [2]) was < 1 µM.
Compound `O=C(CSc1nc2cc(F)c(F)cc2[nH]1)Nc1ccc(Br)cc1` [Compound 126] has an IC50 (PQS; [2]) of 1 to 5 µM.
For `O=C(CSc1nc2ccc(Cl)cc2[nH]1)Nc1ccc(Cl)cc1` [Compound 137], the IC50 (HHQ; [1]) was < 1 µM and the IC50 (PQS; [2]) was < 1 µM.
`COc1ccc(NC(=O)CSc2nc3ccc(Cl)cc3[nH]2)cc1` [Compound 140] was tested, and the IC50 (PQS; [2]) was 5 to 10 µM.
With `N#Cc1ccc(NC(=O)CSc2nc3cc(Cl)ccc3[nH]2)cc1Cl` [Compound 142] the IC50 (HHQ; [1]) was < 1 µM and the IC50 (PQS; [2]) was < 1 µM.
With `O=C(CSc1nc2ccc(Br)cc2[nH]1)Nc1ccc(Cl)cc1` [Compound 145] the IC50 (HHQ; [1]) was < 1 µM and the IC50 (PQS; [2]) was < 1 µM.
With `N#Cc1ccc(NC(=O)CSc2nc3cc(Br)ccc3o2)cc1` [Compound 147] the IC50 (HHQ; [1]) was < 1 µM and the IC50 (PQS; [2]) was < 1 µM.
In the case of `O=C(CCc1nc2ccc(Cl)cc2[nH]1)Nc1ccc(Oc2cccnc2)cc1` [Compound 152, 3-(5-chloro-1H-benzo[d]imidazol-2-yl)-N-(4-(pyridin-3-yloxy)phenyl)propanamide], the IC50 (HHQ; [1]) is reported as < 1 µM and the IC50 (PQS; [2]) is reported as < 1 µM.
